# In paper PMC6681416, “Novel Derivatives of Deoxycholic Acid Bearing Linear Aliphatic Diamine and Aminoalcohol Moieties and their Cyclic Analogs at the C3 Position: Synthesis and Evaluation of Their In Vitro Antitumor Potential” (Molecules, 2019):
# Key:
# [1] = test system: panel of cultured cell lines (HuTu-80, HepG2, KB-3-1, A549, RAW264.7, hFF3); assay: MTT cytotoxicity, range over the panel of tested cell lines; format: cell-based; conditions: 24 h, summary of Table 1 (for 2–10 partly from ref [21])
# Source text: According to our previous data and data published by other research groups, chemical transformations of bile acids can greatly improve their antitumor potential. Thus, as the first step of evaluation of the biological activities of our novel DCA derivatives we assessed their effects on tumor cell viability. The cytotoxicity of the compounds was investigated with respect to a panel of cultured cell lines, including human duodenal HuTu-80, hepatocellular HepG2, cervical KB-3-1 and lung A549 carcinomas as well as murine macrophage RAW264.7 and non-transformed human fibroblasts hFF3 by MTT assay.
# Cells were seeded in triplicate in 96-well plates at a density of 5 × 10^3 (HuTu-80, HepG2, KB-3-1, hFF3), 10^4 (A549) or 5 × 10^4 (RAW264.7) cells per well. Cells were incubated under standard conditions for 24 h and then they were treated with varying doses of investigated derivatives for subsequent 24 h. Then 10 µL of MTT solution (5 mg/mL) were added to each wells and cells were incubated for an additional 2 h under standard conditions. The crystals of formazan forming within live cells were solubilized with DMSO and the absorbance was measured in a Multiscan RC plate reader (Thermo LabSystems, Helsinki, Finland) at a test and reference wavelengths of 570 nm and 620 nm, respectively. […]
# HuTu-80 cells [2] = assay: Autophagy detection (MDC staining); format: cell-based, human; conditions: 8 µM, 24 h, versus control
# Source text: It is known that bile acids can induce cell death independently of apoptosis by activation of autophagy. Autophagy is a regulated lysosome-dependent pathway involved in the degradation of damaged and obsolete intracellular components. During autophagy, these components are isolated by a bilayer membrane resulting in autophagosome formation. Autophagosomes than fuse with lysosomes that leads to enzymatic degradation of their contents. During prolonged and strong stress, cells can autophagocytize up to a half of their cytoplasm that leads to a collapse of cell functions and, as a result, cell death. Monodansylcadaverin (MDC) is an autofluorescent amine that specifically accumulates within autophagic vacuoles and, therefore, can be used as a marker of autophagy.
# HuTu-80 cells were seeded in 6-well plates at a density of 5 × 10^5 cells per well and incubated for 24 h under standard conditions. Then the cells were treated by compound 9 at 8 µM for 24 h, collected by trypsinization, washed with PBS, suspended with 50 µM of MDC at 37 °C for 15 min and analyzed using NovoCyte Flow Cytometer (ACEA Biosciences Inc.). In order to evaluate the type of autophagy (cytoprotective or cytodestructive), HuTu-80 cells were seeded in 96-well plate at a density of 5 × 10^3 cells/well for 24 h followed by co-treatment with compound 9 at 8 µM and chloroquine, an autophagy inhibitor, at 50 µM for 24 h. […]
# HuTu-80 cells [3] = assay: Cell cycle assay (PI, flow cytometry); format: cell-based, human; conditions: 8 µM
# Description: To determine the effect of compound 9 on the cell cycle, HuTu-80 cells were seeded in 6-well plates at a density of 5 × 10^5 cells/well for 24 h. After incubation, cells were treated with compound 9 at 8 µM for 6, 18 or 24 h. Thereafter, cells were collected by trypsinization, washed with cold PBS and fixed in 70% ice-cold ethanol for 30 min at 4 °C. Fixed cells were pelleted, stained with PI (1 mg/mL) for 15 min at 37 °C in the dark and analyzed using NovoCyte Flow Cytometer (ACEA Biosciences Inc.). Ten thousand events were recorded for each sample.
# HuTu-80 cells [4] = assay: Annexin V FITC/PI apoptosis detection; format: cell-based, human; conditions: 8 µM; for late apoptotic cells (Annexin V FITC+/PI+): control 1.5%; for early apoptotic cells (Annexin V FITC+/PI-): control 2.9%
# Description: In the first step of the mechanistic study, the effect of compound 9 on phosphatidylserine (PS) externalization, a marker of the early phase of apoptosis, was analyzed by double staining of compound 9-treated HuTu-80 cells by annexin V FITC and propidium iodide (PI). Live cells are characterized by lipid membrane asymmetry—PS is mainly present in the inner leaflet of the plasma membrane, whereas phosphatidylcholine and sphingomielin are restricted to the outer leaflet. During apoptosis the activity of enzymes involved in membrane lipid scrambling […] and PS is exposed on cell surface. Annexin V is a protein that has a high affinity for PS and its conjugates with fluorophores can be used to estimate the level of PS externalization in vitro. Usage of PI gives in turn an opportunity to identify late apoptotic and necrotic cells displaying increased membrane permeability.
# HuTu-80 cells were seeded in 6-well plates at a density of 5 × 10^5 cells per well and incubated for 24 h under standard conditions. Then the medium was replaced with fresh medium containing compound 9 at 8 µM. In order to determine induction of apoptosis, cells were harvested at 6, 18 and 24 h post treatment. Cells were detached with trypsin, washed with cold PBS and then resuspended gently in binding buffer at concentration of 10^6 cells/mL. Thereafter, cells were stained with fluorescein isothiocyanate (FITC)-conjugated Annexin V and PI (Annexin V-FITC Apoptosis Detection Kit, Millipore, Bedford, MA, USA) for 15 min in the dark and subsequently analyzed using NovoCyte Flow Cytometer (ACEA Biosciences Inc., San Diego, CA, USA). For each sample, 10.000 events were acquired.
smiles,measurement,setting,value
"COC(=O)CC[C@@H](C)[C@H]1CC[C@H]2[C@@H]3CC[C@@H]4CC(O)(CNCCCO)CC[C@]4(C)[C@H]3CC(=O)[C@]12C (stereo partly drawn) [Compound 9, Methyl 3-hydroxy-3-((3-hydroxypropylamino)methyl)-12-oxo-5β-cholan-24-oate]",IC50,[1],4 to 33.3 µM
same,intensity of MDC-associated fluorescence,HuTu-80 cells [2],significantly higher than in control
same,subG1 cell population,HuTu-80 cells [3]; 6 h,7.4%
same,subG1 cell population,HuTu-80 cells [3]; 18 h,30.0%
same,subG1 cell population,HuTu-80 cells [3]; 24 h,41.1%
same,late apoptotic cells (Annexin V FITC+/PI+),HuTu-80 cells [4]; 18 h,4.9%
same,early apoptotic cells (Annexin V FITC+/PI-),HuTu-80 cells [4]; 18 h,23.5%
same,late apoptotic cells (Annexin V FITC+/PI+),HuTu-80 cells [4]; 24 h,10.6%
same,early apoptotic cells (Annexin V FITC+/PI-),HuTu-80 cells [4]; 24 h,36.1%
same,necrotic cells (Annexin V FITC-/PI+),"HuTu-80 cells [4]; all time points (6, 18, 24 h)",≤ 1.1%
